The values below come from PubChem BioAssay AID1919014 (Molecular Pharmacology Branch, DTP, NCI, 2023).

Where “and” joins values, the source holds several entries; their conditions need not be identical. Equal values may be shown once.

For this test, the system named is NCI-H1341 complex spheroids, percent test/control. Description: Anticancer human tumor NCI-H1341 cell line growth inhibition [AhR].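 On all read-outs here: spheroids exposed to agents for seven days before readout.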 Particulars: for viability, T/C: stronger effect = lower value. The text has this: Multicellular complex tumor spheroid response to aryl hydrocarbon receptor antagonists in combination with a variety of drugs and investigational agents in selected tumor cell lines
The current study was undertaken to assess response to aryl hydrocarbon receptor antagonists in combination with standard-of-care drugs and investigational agents in solid tumor complex spheroid models. Complex spheroids include a stromal component modeled by human endothelial cells (HUVEC) and fibroblasts modeled by human mesenchymal stem cells (MSCs). The concentration ranges selected for each drug and investigational agent were based upon clinically achievable concentrations if the clinical Cmax of the agent was known.
Compounds. The drugs and investigational agents: BAY 2416964 (NSC825713), GNF351 (NSC835774), CH-223191 (NSC835775), CPI-455 (NSC825282), aza-TdCyd (NSC777586), decitabine (NSC127716), belinostat (NSC758774), entinostat (NSC756642), pevonedistat (NSC761192), tazemetostat (NSC777109), talazoparib (NSC765396), olaparib (NSC753686), selinexor (NSC780203), nedisertib (M3814, NSC802822), bortezomib (NSC756655), venetoclax (NSC766270), doxorubicin (NSC123127), elimusertib (BAY189344, NSC800525), ceralasertib (AZD6738, NSC777638), TAK-243 (NSC785004), alisertib (NSC759677), etoposide (NSC141540), topotecan (NSC609699), eribulin (NSC707389), gemcitabine (NSC613327), carboplatin (NSC241240), cisplatin (NSC119875), and SN-38 (NSC673596) were obtained from the National Cancer Institute (NCI) Developmental Therapeutics Program Chemical Repository (32). The FDA-approved anticancer drug set is available from the Developmental Therapeutics Program at https://dtp.cancer.gov/organization/dscb/obtaining/available plates.htm. […] The stock solutions were prepared in dimethyl sulfoxide (DMSO, Sigma-Aldrich, St. Louis, MO, cat. D2650), except for the platinum compounds which were prepared in saline (Quality Biological, Gaithersburg, MD, cat. 114-055-101), at 800-fold the tested concentration and stored at -70 degrees C prior to their use. All drugs and investigational agents were tested over a range starting from a high concentration at or near the clinical Cmax and decreasing in half-log increments. If the clinical Cmax for an agent had not been determined, the highest concentration tested was 10 microM (Table 1).
Cell Culture. All cells were maintained in an incubator at 37 degrees C and 5% CO2 with 95% humidity. The PDC lines were cultured according to standard operating procedures established by the NCI PDMR (https://pdmr.cancer.gov). Briefly, all PDCs were thawed and cultured in Matrigel-coated flasks prepared with a working solution of 1X Ham's F-12 nutrient mix, without supplementation (Invitrogen, Waltham, MA, cat. 11765054), 100 U/mL penicillin-streptomycin (Invitrogen, cat. 15140122), and 2.5% Matrigel (Corning Inc., Corning, NY, cat. 354248) for the first three passages. All PDCs were cultured in complete DMEM/F-12 media containing advanced DMEM/F-12 (Invitrogen, cat. 12634028), 4.9% defined fetal bovine serum, heat inactivated (HyClone Laboratories Inc., Logan, UT, cat. SH30070.03HI), 389 ng/mL hydrocortisone (Sigma-Aldrich, cat. H4001), 9.7 ng/mL human EGF recombinant protein (Invitrogen, cat. PHG0313), 23.4 microg/mL adenine (Sigma-Aldrich, cat. A2786), 97.3 U/mL penicillin-streptomycin (Invitrogen, cat. 15140122), 1.9 mM L-glutamine (Invitrogen, cat. 25030081), and 9.7 microM Y-27632 dihydrochloride (Tocris Bioscience, Bristol, United Kingdom, cat. 1254). The PDCs were cultured in complete DMEM/F12 media without 10 microM Y-27632 dihydrochloride for at least two passages prior to the screen. The established cell lines NCI-H1341 and […] were cultured in DMEM/F-12, HEPES (Invitrogen, cat. 11330032), 5% defined fetal bovine serum (HyClone Laboratories Inc., cat. SH30070.03), ITS premix universal culture supplement [insulin (5 microg/mL), transferrin (5 microg/mL), and selenious acid (5 ng/mL)] […]

Setting [1] is: curve of first compound, second compound 0.1 µM.
The mark [2] stands for this setting: curve of first compound, second compound 0.316 µM.
[3] abbreviates: curve of first compound, second compound 1 µM.
[4] abbreviates: curve of first compound, second compound 3.16 µM.
[5] abbreviates: curve of first compound, second compound 10 µM.
Setting [6] is: second compound 0.1 µM, first compound 0.0316 µM.
Where [7] appears, read: second compound 0.1 µM, first compound 0.1 µM.
Setting [8] is: second compound 0.1 µM, first compound 0.316 µM.
Setting [9] is: second compound 0.1 µM, first compound 1 µM.
Where [10] appears, read: second compound 0.316 µM, first compound 0.0316 µM.
Where [11] appears, read: second compound 0.316 µM, first compound 0.1 µM.
[12] abbreviates: second compound 0.316 µM, first compound 0.316 µM.
Where [13] appears, read: second compound 0.316 µM, first compound 1 µM.
Where [14] appears, read: second compound 1 µM, first compound 0.0316 µM.
Setting [15] is: second compound 1 µM, first compound 0.1 µM.
Where [16] appears, read: second compound 1 µM, first compound 0.316 µM.
[17] abbreviates: second compound 1 µM, first compound 1 µM.
The mark [18] stands for this setting: second compound 3.16 µM, first compound 0.0316 µM.
Where [19] appears, read: second compound 3.16 µM, first compound 0.1 µM.
Setting [20] is: second compound 3.16 µM, first compound 0.316 µM.
[21] abbreviates: second compound 3.16 µM, first compound 1 µM.
Where [22] appears, read: second compound 10 µM, first compound 0.0316 µM.
Setting [23] is: second compound 10 µM, first compound 0.1 µM.
Setting [24] is: second compound 10 µM, first compound 0.316 µM.
Where [25] appears, read: second compound 10 µM, first compound 1 µM.

In general, viability, T/C refers to the result in the treated group divided by that in the control group, in per cent. In general, IC50 refers to the midpoint of a concentration-inhibition curve. Regarding `CC(C)c1c(-c2ccccc2)nc2c(C#N)c[nH]n2c1=O`, the viability, T/C (compound 0.0316 µM) was 105% (2×) and 130%; the viability, T/C (compound 0.1 µM) was 93.4% and 104% and 101%; the viability, T/C (compound 0.316 µM) is 90% and 98.5% and 101%; the viability, T/C (compound 1 µM) is 88.2% and 103% and 97.3%; the viability, T/C (compound 3.16 µM) was 100% and 82.5% and 90.3%; the viability, T/C (compound 10 µM) is 78% and 92% and 91.9%. Besides, where the note is “curve of compound”, the IC50 was over 10000 nM.

As to `CC(CO)NC(=O)c1cc(-c2ccc(Cl)cc2)nn(-c2cnn(C)c2)c1=O` (centres undefined), under “compound 10 µM”, the viability, T/C is 78.7% [middle of 19 runs]. Moreover, under “compound alone, run of 07/12/2022”, the half-maximal inhibitory concentration (IC50) is over 10000 nM.

Consider `CC1COCCN1c1cc(C2(S(C)(=N)=O)CC2)nc(-c2ccnc3[nH]ccc23)n1` (centres undefined), for which the viability, T/C was 78.3% and 98.6% and 99.5% (compound 0.0316 µM); 102% and 101% and 88.4% (compound 0.1 µM); 83.1% and 114% and 76.1% (compound 0.316 µM); 96.3% and 75.8% and 66.2% (compound 1 µM); 60.8% and 47.8% and 37.9% (compound 3.16 µM); 23.1% and 30.4% and 20.2% (compound 10 µM). In addition, the IC50 (curve of compound) was 4400 nM and 2570 nM and 1910 nM.

For `COc1ccc([C@@H](O)c2cc(-c3ncnc4cc(N5CCOCC5)ccc34)c(F)cc2Cl)nn1`, the viability, T/C (compound 0.0316 µM) was 97.1% and 88.2% and 96%; the viability, T/C (compound 0.1 µM) was 96.2% and 93.7% and 96.8%; the viability, T/C (compound 0.316 µM) is 91.2% and 79.9% and 87.8%; the viability, T/C (compound 1 µM) was 63.1% and 57% and 71.2%; the viability, T/C (compound 3.16 µM) is 31.1% and 22.9% and 32.9%; the viability, T/C (compound 10 µM) was 4.6% and 6.65% and 8.33%. Further, the 50% inhibitory concentration (IC50) (curve of compound) is 1650 nM and 1260 nM and 1880 nM.

For `Cc1ccccc1N=Nc1ccc(NC(=O)c2ccnn2C)c(C)c1`, the viability, T/C (compound 10 µM) is 56.2% [middle of 20 runs].

With `COc1cccc2c1C(=O)c1c(O)c3c(c(O)c1C2=O)CC(O)(C(=O)CO)CC3OC1CC(N)C(O)C(C)O1` (centres undefined) + CC(CO)NC(=O)c1cc(-c2ccc(Cl)cc2)nn(-c2cnn(C)c2)c1=O, the IC50 reads like this: under setting [1], 108 nM; under setting [2], under 31.6 nM; under setting [3], 103 nM; under setting [4], under 31.6 nM; under setting [5], under 31.6 nM. The viability, T/C is, setting by setting: under setting [6], 51%; under setting [7], 53%; under setting [8], 32.4%; under setting [9], 6.25%; (second compound 0.1 µM, first compound 3.16 µM) 0.83%; (second compound 0.1 µM, first compound 10 µM) 2.75%. Also, the viability, T/C reads like this: under setting [10], 51.3%; under setting [11], 40.9%; under setting [12], 28.4%; under setting [13], 6.42%; (second compound 0.316 µM, first compound 3.16 µM) 0.79%; (second compound 0.316 µM, first compound 10 µM) 2.4%. For the same compound, the viability, T/C was 48.4% under setting [14]; 53.3% under setting [15]; 30.2% under setting [16]; 4.94% under setting [17]; 1.46% (second compound 1 µM, first compound 3.16 µM); 2.75% (second compound 1 µM, first compound 10 µM). Also, the viability, T/C by setting is: under setting [18], 43.9%; under setting [19], 53.7%; under setting [20], 26.7%; under setting [21], 3.92%; (second compound 3.16 µM, first compound 3.16 µM) 3.09%; (second compound 3.16 µM, first compound 10 µM) 2.61%. Besides, the viability, T/C under setting [22] was 41.6%; the viability, T/C under setting [23] was 36.8%; the viability, T/C under setting [24] is 15.2%; the viability, T/C under setting [25] is 0.93%; the viability, T/C (second compound 10 µM, first compound 3.16 µM) was 2.19%; the viability, T/C (second compound 10 µM, first compound 10 µM) is 2.31%.

With `Nc1ncn(C2CC(O)C(CO)O2)c(=O)n1` (centres undefined) + CC(CO)NC(=O)c1cc(-c2ccc(Cl)cc2)nn(-c2cnn(C)c2)c1=O, the IC50 by setting is: under setting [1], 154 nM; under setting [2], 179 nM; under setting [3], 85.3 nM; under setting [4], 207 nM; under setting [5], 215 nM. Besides, the viability, T/C runs as follows: (second compound 0.1 µM, first compound 0.00316 µM) 76.5%; (second compound 0.1 µM, first compound 0.01 µM) 85.7%; under setting [6], 81.8%; under setting [7], 59.3%; under setting [8], 34.2%; under setting [9], 26.6%. Besides, the viability, T/C reads like this: (second compound 0.316 µM, first compound 0.00316 µM) 92.1%; (second compound 0.316 µM, first compound 0.01 µM) 99%; under setting [10], 85.2%; under setting [11], 61.8%; under setting [12], 39.1%; under setting [13], 31.8%. Further, the viability, T/C (second compound 1 µM, first compound 0.00316 µM) is 92.2%; the viability, T/C (second compound 1 µM, first compound 0.01 µM) is 86.3%; the viability, T/C under setting [14] is 81.3%; the viability, T/C under setting [15] was 45%; the viability, T/C under setting [16] is 32.5%; the viability, T/C under setting [17] was 33.7%. The viability, T/C by setting is: (second compound 3.16 µM, first compound 0.00316 µM) 79.8%; (second compound 3.16 µM, first compound 0.01 µM) 65.6%; under setting [18], 67.1%; under setting [19], 66.3%; under setting [20], 40.6%; under setting [21], 30.9%. Besides, the viability, T/C runs as follows: (second compound 10 µM, first compound 0.00316 µM) 82.1%; (second compound 10 µM, first compound 0.01 µM) 69.6%; under setting [22], 79.8%; under setting [23], 67.5%; under setting [24], 41%; under setting [25], 27.2%.
